The values below come from patent US20150328199A1, “METHODS AND COMPOSITIONS USING 4-AMINO-2-(2,6-DIOXO-PIPERIDINE-3-YL)-ISOINDOLINE-1,3-DIONE FOR TREATMENT OF CANCERS” (Celgene Corporation, priority 2014, published 2015).

SMILES strings stand for the structures.

Series [1] is described as follows: Comparative population pharmacokinetic analysis of pomalidomide with thalidomide and lenalidomide (two-compartment PPK model). It is filed as in vivo, human. The note with it: for drug exposure in central (plasma) compartment, patients versus healthy subjects: FIG. 7A, 8A; for drug exposure in peripheral compartment, patients versus healthy subjects: FIG. 7B, 8B; for relation of disease stage and peripheral compartment exposure in patients: FIG. 9. From the text:
Population pharmacokinetic analysis of pomalidomide was compared with that of 2-(2,6-dioxopiperidin-3-yl)-1H-isoindole-1,3(2H)-dione (“thalidomide”) and 3-(4-amino-1-oxo-1,3-dihydro-2H-isoindo1-2-yl)piperidine-2,6-dione (“lenalidomide” also known as “Revlimid”), on available data from healthy subjects and MM patients. The results of analyses are provided in Table 7 and FIGS. 3A to FIGS. 9. FIGS. 3A and 3B provide concentration vs. time profiles for thalidomide, lenalidomide and pomalidomide.
The data of thalidomide and revlimid are based on a population pharmacokinetic analysis performed on data from studies using a two-compartment PPK model.

The nature of series [2]: Clinical pharmacokinetics of pomalidomide after single oral dose (non-compartmental analysis). Format: in vivo, human. Here is the method: Pomalidomide is absorbed with a maximum plasma concentration (Cmax) at a median time (tmax) between 2 hours and 3 hours after clinically relevant doses. Pomalidomide is >73% absorbed following administration of a single oral dose. […] Based on non-compartmental analysis, mean (percent coefficient of variation [%CV]) apparent volume of distribution (Vz/F) of pomalidomide after a single dose ranges from 74 L (20%) to 138 L (30%) across a dose range of 1 mg to 10 mg. Pomalidomide is extensively metabolized via multiple metabolic pathways and is eliminated in human via multiple pathways.

In general, CL/F refers to the apparent clearance, not corrected for the fraction that reaches the circulation. On to `Nc1cccc2c1CN(C1CCC(=O)NC1=O)C2=O` (stereo not drawn) [Revlimid, 3-(4-amino-1-oxo-1,3-dihydro-2H-isoindo1-2-yl)piperidine-2,6-dione], for which, in series [1], the “drug exposure in central (plasma) compartment, patients versus healthy subjects” value is “comparable” and the “drug exposure in peripheral compartment, patients versus healthy subjects” value is “comparable”. For the same molecule, in series [1] (HNV (healthy subjects)), the apparent clearance (CL/F) stood at 16.8 L/h, the KA is 5.41 h⁻¹, the Q/CL is 12.7% and the Q/F amounted to 2.14 L/h. Moreover, in series [1] (HNV (healthy subjects)), the “Relative Potential of Deep Penetration” value came out at 2.1%, the Tlag amounted to 0.25 h, the V2/F amounted to 56.5 L and the V3/F is reported as 9.49 L. The molecule also registered a V3/V2 in series [1] (HNV (healthy subjects)) of 16.8%. In series [1] (Patients (MM)), the apparent clearance CL/F was 10.2 L/h, the Q/CL was 11.1%, the Q/F was determined as 1.13 L/h and the “Relative Potential of Deep Penetration” value worked out at 1.9%. In series [1] (Patients (MM)), this molecule showed a Tlag of 0.235 h, a V2/F of 48.3 L, a V3/F of 8.36 L and a V3/V2 of 17.3%.
Regarding `Nc1cccc2c1C(=O)N(C1CCC(=O)NC1=O)C2=O` (stereo not drawn) [Pomalidomide, 4-amino-2-(2,6-dioxo-piperidine-3-yl)-isoindoline-1,3-dione], the Tmax in series [2] (human, plasma, oral, after clinically relevant doses, read-out: median time (tmax) of maximum plasma concentration) lay in the range of 2 to 3 h. The half-life in series [2] (human, plasma, oral, read-out: geometric mean terminal half-life (t1/2) (converted)) is about 7.5 h. Also, in series [2] (single dose), the Cmax versus dose entry is “less than dose proportional” and the “systemic exposure (AUC) versus dose” value is reported as “approximately dose-proportional”. Besides, in series [2] (single oral dose), the absorbed is reported as over 73%. Moreover, in series [1], the “drug exposure in central (plasma) compartment, patients versus healthy subjects” value was “comparable”; the “drug exposure in peripheral compartment, patients versus healthy subjects” value is on record as “higher drug exposure”; the “relation of disease stage and peripheral compartment exposure in patients” value is “higher disease stage were correlated with higher peripheral compartment pomalidomide exposure”. For the same molecule, the “relation of disease stage and peripheral compartment exposure in patients” value in series [1] (listed as 4-amino-2-(2,6-dioxo-piperidine-3-yl)-isoindoline-1,3-dione) was “higher disease stage was correlated with higher peripheral compartment”. In series [1] (HNV (healthy subjects)), the apparent clearance CL/F was determined as 8.52 L/h, the KA worked out at 1.25 h⁻¹, the Q/CL is recorded as 11.8% and the Q/F was determined as 1.01 L/h. In series [1] (HNV (healthy subjects)), this molecule came in with a Tlag of 0.385 h. In series [1] (Patients (MM)), this molecule gave a CL/F of 7.78 L/h, a KA of 1.25 h⁻¹, a Q/CL of 48% and a Q/F of 3.75 L/h. This molecule also showed a Tlag in series [1] (Patients (MM)) of 0.206 h.
For the molecule `O=C1CCC(N2C(=O)c3ccccc3C2=O)C(=O)N1` (stereo not drawn) [Thalidomide, 2-(2,6-dioxopiperidin-3-yl)-1H-isoindole-1,3(2H)-dione], in series [1], the “drug exposure in central (plasma) compartment, patients versus healthy subjects” value is given as “comparable” and the “drug exposure in peripheral compartment, patients versus healthy subjects” value was “comparable”. In series [1] (HNV (healthy subjects)), the CL/F was 9.66 L/h, the KA came out at 0.536 h⁻¹, the Q/CL is given as 4% and the Q/F was 0.355 L/h. In addition, in series [1] (HNV (healthy subjects)), the “Relative Potential of Deep Penetration” value amounted to 0.6%, the V2/F is listed as 83.3 L, the V3/F came to 13.5 L and the V3/V2 was 16%.
